We go through eight compounds from PubChem BioAssay (NCI).

Among the test systems are A549 NSCLC; 786-0 renal; MDA-MB-231 breast; NCI/ADR-RES ovarian; MOLT-4 leukemia; HOP-62 NSCLC; SF-295 CNS; MDA-MB-435; MALME-3M melanoma; SK-MEL-5 melanoma.
Common to all, as to experiment: DTP human tumour cell line panel, 48 h

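Values below derive from 48-hour exposures of cells grown in 96-well plates, with endpoints linearly interpolated between the two concentrations bracketing the appropriate inhibition level. At the GI50, growth is halved. TGI: concentration producing complete growth inhibition.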 Bounds are passed on as bounds.

Consider `CCCCCCCCCCCCCCCCn1cc[n+](C)c1`, for which the GI50 (in general, the concentration at which growth is held to half of that of the control) in the test with A549 NSCLC is 0.326 µM; in the test with 786-0 renal, 0.5 µM; in the test with MDA-MB-231 breast it was 0.814 µM; in the test with NCI/ADR-RES ovarian, 1.95 µM; in the test with MOLT-4 leukemia, 0.306 µM; in the test with HOP-62 NSCLC, 0.443 µM. In addition, the concentration for 50% growth inhibition (GI50) is 0.318 µM in the test with SF-295 CNS, 0.358 µM in the test on MDA-MB-435 and 0.357 µM in the test with MALME-3M melanoma. Besides, the concentration for total growth inhibition (TGI) (in general, the concentration giving total growth inhibition) worked out at 1.6 µM in the test on A549 NSCLC; 1.91 µM in the test on 786-0 renal; 2.23 µM in the test with MDA-MB-231 breast; 18.4 µM with NCI/ADR-RES ovarian; 1.5 µM with MOLT-4 leukemia; 1.73 µM in the test with HOP-62 NSCLC. For the same compound, the concentration for total growth inhibition (TGI) with SF-295 CNS was 1.43 µM; in the test on MDA-MB-435 it was 1.49 µM; with MALME-3M melanoma, 1.51 µM.

`COc1cccc2c1C(=O)c1c(O)c3c(c(O)c1C2=O)C[C@](O)(C(=O)CO)C[C@H]3O[C@@H]1C[C@@H](NC(=O)CCCN(C)C2(c3ccc(F)cc3)CC3CCC2C3)[C@H](O)[C@@H](C)O1` (stereo not given in full): the GI50 with 786-0 renal was 0.801 µM; in the test with SK-MEL-5 melanoma it was 0.859 µM; with MDA-MB-231 breast, 0.771 µM; with NCI/ADR-RES ovarian it was 8.47 µM; with MOLT-4 leukemia it was 0.382 µM; with HOP-62 NSCLC it was 2.26 µM. The GI50 is 0.805 µM in the test on SF-295 CNS, 0.836 µM in the test on MDA-MB-435 and 0.914 µM in the test with MALME-3M melanoma. Besides, the TGI was found to be 1.57 µM with 786-0 renal; 1.57 µM with SK-MEL-5 melanoma; 1.54 µM in the test on MDA-MB-231 breast; 50 µM with NCI/ADR-RES ovarian; 1.9 µM with MOLT-4 leukemia; 10.6 µM with HOP-62 NSCLC. For the same compound, the values for the TGI in the test on SF-295 CNS, in the test with MDA-MB-435 and with MALME-3M melanoma were 1.6 µM, 1.61 µM and 1.76 µM, respectively.

Consider `COc1cccc(S(=O)(=O)NC2=NCCN2C(=S)SN2CCn3c2nsc3=S)c1`, for which the GI50 in the test with A549 NSCLC is > 100 µM; in the test on 786-0 renal, 31.6 µM; with SK-MEL-5 melanoma it was 37.9 µM; with MDA-MB-231 breast, 28.1 µM; in the test on NCI/ADR-RES ovarian, 52.4 µM; with MOLT-4 leukemia it was 32.5 µM. For the same compound, the values for the GI50 in the test with HOP-62 NSCLC, in the test with SF-295 CNS and in the test on MDA-MB-435 were 55.5 µM, > 100 µM and 37.3 µM, respectively. Moreover, the TGI in the test on A549 NSCLC was > 100 µM; in the test on 786-0 renal it was > 100 µM; in the test with SK-MEL-5 melanoma it was > 100 µM; with MDA-MB-231 breast, 96 µM; in the test with NCI/ADR-RES ovarian it was > 100 µM; in the test with MOLT-4 leukemia it was > 100 µM. In addition, the TGI with HOP-62 NSCLC, in the test on SF-295 CNS and in the test on MDA-MB-435 was > 100 µM in each case.

On to `O=S(O)O.O=S(O)O.[Co].[NH2-].[NH2-].[NH2-].[NH2-]`, for which the GI50 in the test with A549 NSCLC, in the test on 786-0 renal, in the test with SK-MEL-5 melanoma, in the test with MDA-MB-231 breast, in the test with NCI/ADR-RES ovarian and with HOP-62 NSCLC was > 100 µM throughout. The GI50 in the test with SF-295 CNS, in the test with MDA-MB-435 and in the test on MALME-3M melanoma was > 100 µM each time. The TGI in the test with A549 NSCLC, in the test with 786-0 renal, with SK-MEL-5 melanoma, in the test on MDA-MB-231 breast, in the test on NCI/ADR-RES ovarian and in the test on HOP-62 NSCLC was > 100 µM each time. In addition, the TGI with SF-295 CNS, in the test with MDA-MB-435 and in the test with MALME-3M melanoma was > 100 µM each time.

As for `COc1cc(CSc2nc3ccc(Cl)cc3c(=O)n2Cc2ccccc2)cc(OC)c1OC`, the GI50 in the test on A549 NSCLC is 4.03 µM; with 786-0 renal it was 7.62 µM; in the test with SK-MEL-5 melanoma, 2.41 µM; with MDA-MB-231 breast, 5.34 µM; in the test on NCI/ADR-RES ovarian, 2.77 µM; in the test on MOLT-4 leukemia, 4.41 µM. The GI50 was 2.88 µM in the test with HOP-62 NSCLC, 0.406 µM in the test on MDA-MB-435 and 5.81 µM with MALME-3M melanoma. For the same compound, the TGI with A549 NSCLC was > 100 µM; in the test with 786-0 renal, 41.3 µM; with SK-MEL-5 melanoma, 17.1 µM; in the test on MDA-MB-231 breast it was > 100 µM; in the test with NCI/ADR-RES ovarian it was > 100 µM; in the test with MOLT-4 leukemia it was > 100 µM. Also, the TGI with HOP-62 NSCLC amounted to 18.2 µM; in the test with MDA-MB-435 it was 11.6 µM; in the test on MALME-3M melanoma, 39.1 µM.

For the compound `COc1cc2c3c(n(CCCN=[N+]=[N-])c(=O)c2cc1OC)-c1ccccc1C3=O`, the GI50 in the test on A549 NSCLC is 26.2 µM; in the test with 786-0 renal, 4.68 µM; in the test with SK-MEL-5 melanoma, 3.17 µM; in the test with MDA-MB-231 breast, > 100 µM; with NCI/ADR-RES ovarian, 4.59 µM; in the test with MOLT-4 leukemia it was 0.702 µM. The results for the GI50 with HOP-62 NSCLC, in the test with SF-295 CNS and with MDA-MB-435 were 3.53 µM, 2.87 µM and 9.81 µM, respectively. Besides, the total growth inhibition concentration (TGI) with A549 NSCLC was > 100 µM; in the test on 786-0 renal it was 69.2 µM; in the test on SK-MEL-5 melanoma it was 9.25 µM; in the test on MDA-MB-231 breast, > 100 µM; with NCI/ADR-RES ovarian it was 75.2 µM; with MOLT-4 leukemia, 3.38 µM. The TGI in the test with HOP-62 NSCLC was 43.1 µM; with SF-295 CNS it was 9.86 µM; in the test on MDA-MB-435 it was 83.9 µM.

`CC(C)C1=Cc2ccc3c(c2C(=O)C1=O)CCCC3`: the TGI with A549 NSCLC turned out to be 34.4 µM; in the test with 786-0 renal, 6.02 µM; with SK-MEL-5 melanoma, 25.6 µM; in the test with MDA-MB-231 breast, 34.1 µM; with NCI/ADR-RES ovarian, 52.1 µM; with HOP-62 NSCLC, 42.1 µM. For the same compound, the values for the TGI in the test with SF-295 CNS, in the test on MDA-MB-435 and in the test with MALME-3M melanoma were 25.8 µM, 21.4 µM and 5.78 µM, respectively.

Take `CCCCN(CCCC)P(=O)(Oc1ccccc1)Oc1ccccc1`: the GI50 in the test with A549 NSCLC is 5.06 µM; in the test with 786-0 renal it was 12.3 µM; with SK-MEL-5 melanoma, 11.5 µM; in the test on MDA-MB-231 breast, 8.08 µM; in the test on NCI/ADR-RES ovarian it was 5.23 µM; in the test on MOLT-4 leukemia, 6.18 µM. Moreover, the results for the GI50 in the test on HOP-62 NSCLC, with SF-295 CNS and in the test with MDA-MB-435 were 14 µM, 3.49 µM and 6.2 µM, respectively. Moreover, the TGI in the test with A549 NSCLC amounted to 19.6 µM; with 786-0 renal, 25.2 µM; in the test on SK-MEL-5 melanoma it was 23.7 µM; with MDA-MB-231 breast it was 23.3 µM; in the test on NCI/ADR-RES ovarian, 18.7 µM; in the test with MOLT-4 leukemia it was 38.4 µM. Moreover, the TGI in the test on HOP-62 NSCLC turned out to be 27.7 µM; in the test on SF-295 CNS it was 16.1 µM; in the test on MDA-MB-435, 19.9 µM.
